Among the data in DBAASP are MIC values, retold here.

Each structure is given as a SMILES string. Converted amounts (≈) assume the structure as drawn. Bounds are passed on as bounds.

Test systems include Pseudomonas aeruginosa; Bacillus cereus; Bacillus pumilus; Shigella dysenteriae; Escherichia coli BL21; Bacillus subtilis DELTA; Candida parapsilosis; Bacillus subtilis; Salmonella typhimurium; Proteus vulgaris; Streptococcus pyogenes; Escherichia coli.
Test in all cases: ≥ marks a high value that may be exact or a test limit, other limits are often not marked, values filed in µg/mL are converted to µM
Experiment [1] has as its system Acinetobacter calcoaceticus.
In experiment [2] the test system is Staphylococcus aureus ATCC 2592.
Experiment [3] has as its system Escherichia coli ATCC 25922.
The subject of experiment [4] is Candida albicans ATCC 2002.
Experiment [5] has as its system Streptococcus pyogenes M1T1 5448.
Experiment [6] concerns Pseudomonas aeruginosa PAO1.
Experiment [7] concerns Escherichia coli DH5alpha.
Experiment [8] relates to Zymomonas mobilis ATCC 10988.
Experiment [9] deals with Escherichia coli IFO 3301.
Experiment [10] relates to Bacillus subtilis IFO 3336.
Experiment [11] concerns Escherichia coli NEB5alpha.
In experiment [12] the test system is Staphylococcus epidermidis.
Experiment [13] concerns Bacillus subtilis ATCC 6051.

For orientation: MIC means the lowest concentration found to suppress growth. As for `CC[C@H](C)[C@H](NC(=O)[C@@H]1CCCN1C(=O)[C@H](Cc1ccccc1)NC(=O)[C@@H](N)Cc1ccccc1)C(=O)N[C@H](C(=O)NCC(=O)N[C@@H](CCCCN)C(=O)N[C@@H](CC(C)C)C(=O)N[C@@H](CC(C)C)C(=O)N[C@@H](Cc1ccccc1)C(=O)NCC(=O)N[C@@H](CC(C)C)C(=O)N[C@@H](Cc1ccccc1)C(=O)NCC(=O)N[C@@H](CC(C)C)C(=O)N[C@@H](CC(C)C)C(N)=O)C(C)C` [FFPIVGKLLFGLFGLL], the MIC in experiment [1] is 16.8 µM (≈ 30 µg/mL); in experiment [2] it was 1.4 µM (≈ 2.5 µg/mL); in the experiment on Pseudomonas aeruginosa it was 4.21 µM (≈ 7.5 µg/mL); with Bacillus cereus, 16.8 µM (≈ 30 µg/mL); in experiment [3], 2.81 µM (≈ 5 µg/mL); in experiment [4] it was 0.702 µM (≈ 1.25 µg/mL). Besides, the figures for the MIC against Bacillus pumilus and in the experiment on Shigella dysenteriae were 1.4 µM (≈ 2.5 µg/mL) and 5.61 µM (≈ 9.99 µg/mL), respectively.
In the case of `CC[C@H](C)[C@H](NC(=O)[C@H](CCCCN)NC(=O)[C@H](CCCCN)NC(=O)[C@H](CCCCN)NC(=O)[C@H](CC(C)C)NC(=O)[C@H](CCCN=C(N)N)NC(=O)[C@H](CCC(N)=O)NC(=O)[C@H](Cc1ccccc1)NC(=O)[C@@H](NC(=O)[C@@H](NC(=O)[C@H](CCC(=O)O)NC(=O)[C@H](CCCCN)NC(=O)CNC(=O)[C@H](C)N)[C@@H](C)O)[C@@H](C)CC)C(=O)N[C@@H](CCC(N)=O)C(=O)N[C@@H](CCC(=O)O)C(=O)N[C@@H](CCCCN)C(=O)NCC(=O)N[C@@H](CCCCN)C(=O)N[C@@H](CCCN=C(N)N)C(=O)N[C@@H](C)C(=O)N[C@H](C(=O)N[C@H](C(=O)N[C@@H](Cc1c[nH]c2ccccc12)C(=O)N[C@@H](Cc1c[nH]c2ccccc12)C(=O)O)[C@@H](C)CC)[C@@H](C)O` [AGKETIFQRLKKKIQEKGKRATIWW], the figures for the MIC (with Escherichia coli BL21; in experiment [5]; in [6]) were 4 µM (≈ 12.2 µg/mL), 0.25 µM (≈ 0.761 µg/mL) and 16 µM (≈ 48.7 µg/mL), respectively.
`CC[C@H](C)[C@H](NC(=O)[C@H](Cc1ccccc1)NC(=O)[C@H](CCCCN)NC(=O)[C@H](CC(C)C)NC(=O)[C@H](CC(C)C)NC(=O)CN)C(=O)N[C@@H](CCCCN)C(=O)N[C@@H](CCCN=C(N)N)C(=O)N[C@@H](CC(C)C)C(=O)N[C@@H](CC(C)C)C(N)=O` [GLLKFIKRLL]: the MIC against Bacillus subtilis DELTA is not below 167 µM; in [7], not below 167 µM; in experiment [8] it was 4.16 µM (≈ 5 µg/mL); in experiment [6], 2.5 µM (≈ 3 µg/mL); with Candida parapsilosis, 8.33 µM (≈ 9.99 µg/mL).
Regarding `CC[C@H](C)[C@H](NC(=O)[C@H](CCCCN)NC(=O)[C@H](CC(C)C)NC(=O)[C@H](CC(C)C)NC(=O)CN)C(=O)N[C@H](C(=O)N[C@@H](CCCCN)C(=O)N[C@@H](CCCN=C(N)N)C(=O)N[C@@H](CC(C)C)C(=O)N[C@@H](CC(C)C)C(N)=O)[C@@H](C)CC` [GLLKIIKRLL], the minimal inhibitory concentration (MIC) in the experiment with Bacillus subtilis DELTA is 8.57 µM (≈ 9.99 µg/mL); in [7] it was not below 171 µM; in experiment [8] it was 4.29 µM (≈ 5 µg/mL); in [6] it was 2.57 µM (≈ 3 µg/mL); with Candida parapsilosis, 12.9 µM (≈ 15 µg/mL).
For the molecule `CC[C@H](C)[C@H](NC(=O)[C@@H]1CCCN1C(=O)[C@H](CC(C)C)NC(=O)[C@@H](N)Cc1ccccc1)C(=O)N[C@H](C(=O)NCC(=O)N[C@@H](CCCCN)C(=O)N[C@@H](CC(C)C)C(=O)N[C@@H](CC(C)C)C(=O)N[C@@H](CO)C(=O)NCC(=O)N[C@@H](CC(C)C)C(=O)N[C@@H](CO)C(=O)NCC(=O)N[C@@H](CC(C)C)C(=O)N[C@@H](CO)C(N)=O)C(C)C` [FLPIVGKLLSGLSGLS], the MIC was not below 37.5 µM in experiment [1]; 1.56 µM (≈ 2.5 µg/mL) in experiment [2]; 1.56 µM (≈ 2.5 µg/mL) with Pseudomonas aeruginosa; not below 46.8 µM against Bacillus cereus; 3.12 µM (≈ 5 µg/mL) in experiment [3]; 1.56 µM (≈ 2.5 µg/mL) in [4]. Besides, the MIC in the experiment on Bacillus pumilus was determined as 4.68 µM (≈ 7.5 µg/mL); against Shigella dysenteriae, 12.5 µM (≈ 20 µg/mL).
As for `NC(N)=NCCC[C@H](NC(=O)[C@H](Cc1cnc[nH]1)NC(=O)[C@H](CCCN=C(N)N)NC(=O)[C@H](Cc1cnc[nH]1)NC(=O)[C@H](CCCN=C(N)N)NC(=O)[C@H](Cc1cnc[nH]1)NC(=O)[C@H](CCCN=C(N)N)NC(=O)[C@H](Cc1cnc[nH]1)NC(=O)[C@H](CCCN=C(N)N)NC(=O)[C@H](Cc1cnc[nH]1)NC(=O)[C@@H](N)CCCN=C(N)N)C(=O)N[C@@H](Cc1cnc[nH]1)C(=O)O` [RHRHRHRHRHRH], the minimal inhibitory concentration (MIC) in experiment [9] and in experiment [10] was 5.62 µM (≈ 10 µg/mL) throughout.
In experiment [11], `CC[C@H](C)[C@H](NC(=O)[C@H](C)NC(=O)[C@H](C)NC(=O)[C@H](CCCN=C(N)N)NC(=O)[C@H](CC(=O)O)NC(=O)[C@H](CC(N)=O)NC(=O)[C@@H](NC(=O)[C@@H](N)CCCCN)[C@@H](C)O)C(=O)NCC(=O)N[C@@H](CCCCN)C(=O)N[C@@H](CC(C)C)C(=O)N[C@H](C(=O)NCC(=O)N[C@@H](C)C(=O)N[C@H](C(=O)N[C@@H](CO)C(=O)N[C@@H](CO)C(=O)N[C@@H](CC(C)C)C(=O)O)[C@@H](C)O)C(C)C` [KTNDRAAIGKLVGATSSL] returned an MIC not below 1000 µM.
`NC(N)=NCCC[C@H](NC(=O)[C@H](Cc1cnc[nH]1)NC(=O)[C@@H](N)CCCN=C(N)N)C(=O)N[C@@H](Cc1cnc[nH]1)C(=O)O` [RHRH]: the MIC in experiment [9] and in [10] was not below 827 µM each time.
Turning to `CC[C@H](C)[C@H](NC(=O)[C@H](Cc1ccc(O)cc1)NC(=O)[C@@H](NC(=O)[C@@H]1CCCN1C(=O)[C@H](CCCN=C(N)N)NC(=O)[C@H](CC(N)=O)NC(=O)[C@H](CC(N)=O)NC(=O)CNC(=O)[C@@H]1CCCN1C(=O)[C@H](CCC(=O)O)NC(=O)[C@H](C)NC(=O)[C@H](CCC(=O)O)NC(=O)[C@@H]1CCCN1C(=O)[C@H](CCC(=O)O)NC(=O)[C@H](C)NC(=O)[C@H](CCC(=O)O)NC(=O)[C@H](CCCN=C(N)N)NC(=O)[C@@H](N)CCCN=C(N)N)C(C)C)C(=O)N1CCC[C@H]1C(=O)N[C@@H](CCC(N)=O)C(=O)N1CCC[C@H]1C(=O)N[C@@H](CCCN=C(N)N)C(=O)N1CCC[C@H]1C(=O)N1CCC[C@H]1C(=O)N[C@@H](Cc1cnc[nH]1)C(=O)N1CCC[C@H]1C(=O)N[C@@H](CCCN=C(N)N)C(=O)N[C@@H](CC(C)C)C(=O)O` [RREAEPEAEPGNNRPVYIPQPRPPHPRL], the MIC was not below 64 µM in the experiment with Bacillus subtilis; 2 µM (≈ 6.55 µg/mL) in the experiment with Salmonella typhimurium; not below 64 µM with Proteus vulgaris; 64 µM (≈ 210 µg/mL) against Pseudomonas aeruginosa; not below 64 µM in the experiment on Streptococcus pyogenes; not below 64 µM in [12]. For the same molecule, the MIC in the experiment with Escherichia coli was determined as 64 µM (≈ 210 µg/mL).
Take `CC[C@H](C)[C@H](NC(=O)[C@H](C)NC(=O)CNC(=O)[C@H](CCCCN)NC(=O)[C@H](CCC(=O)O)NC(=O)[C@H](CCC(=O)O)NC(=O)[C@H](CC(=O)O)NC(=O)[C@H](CCC(=O)O)NC(=O)[C@H](CC(N)=O)NC(=O)[C@H](CCCN=C(N)N)NC(=O)CNC(=O)[C@H](CCC(N)=O)NC(=O)[C@H](CC(C)C)NC(=O)[C@@H](N)CCCCN)C(=O)N[C@H](C(=O)N[C@@H](CCCCN)C(=O)N[C@H](C(=O)N[C@@H](CCCCN)C(=O)O)C(C)C)C(C)C` [KLQGRNEDEEKGAIVKVK]: the minimum inhibitory concentration (MIC) in experiment [11] and in [13] was not below 1000 µM each time.
